Measured values: ChEMBL document CHEMBL1909046, “DrugMatrix in vitro pharmacology data”

How the values were obtained:
[1] = DRUGMATRIX: Sigma2 radioligand binding (ligand: [3H] Ifenprodil); type: cell membranes, Rattus norvegicus, Wistar, Brain, Membrane; settings: Not Active = under 50% inhibition at 10 µM
[2] = target: T1, C-X-C chemokine receptor type 2 (Homo sapiens, UniProt P25025); type: cell membranes, Membrane; settings: cho-k1; note: in other assays of this panel Not Active means under 50% inhibition at 10 µM
T1 sequence (P25025 whole entry): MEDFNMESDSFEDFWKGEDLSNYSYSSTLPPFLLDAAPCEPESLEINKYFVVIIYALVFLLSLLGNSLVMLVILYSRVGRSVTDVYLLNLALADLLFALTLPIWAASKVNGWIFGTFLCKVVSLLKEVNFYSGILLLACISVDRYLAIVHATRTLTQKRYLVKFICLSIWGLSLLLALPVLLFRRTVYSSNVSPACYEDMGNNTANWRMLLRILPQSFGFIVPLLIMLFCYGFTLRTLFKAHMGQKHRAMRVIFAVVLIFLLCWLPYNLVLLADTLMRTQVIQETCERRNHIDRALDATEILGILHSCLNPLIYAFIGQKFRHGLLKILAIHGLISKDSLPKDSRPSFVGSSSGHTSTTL

[3] = target: T2, Neuropeptide Y receptor type 2 (Homo sapiens, UniProt P49146); type: cell membranes, Membrane; settings: kan-ts; note: in other assays of this panel Not Active means under 50% inhibition at 10 µM
T2 sequence (P49146 whole entry): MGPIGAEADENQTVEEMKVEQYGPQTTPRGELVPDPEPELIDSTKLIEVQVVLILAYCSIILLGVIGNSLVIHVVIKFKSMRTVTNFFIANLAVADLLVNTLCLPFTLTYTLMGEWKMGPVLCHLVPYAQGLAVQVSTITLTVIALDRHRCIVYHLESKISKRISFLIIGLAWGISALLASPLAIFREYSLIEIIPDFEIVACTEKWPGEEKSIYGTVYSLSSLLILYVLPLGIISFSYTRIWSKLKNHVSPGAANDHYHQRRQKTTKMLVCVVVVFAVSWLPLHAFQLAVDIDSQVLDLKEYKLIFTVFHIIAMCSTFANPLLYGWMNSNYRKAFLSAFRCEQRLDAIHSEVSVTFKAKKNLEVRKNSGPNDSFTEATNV

[4] = target: Platelet-activating factor receptor (Homo sapiens, UniProt P25105); assay: biochemical; type: tissue-based; note: in other assays of this panel Not Active means under 50% inhibition at 10 µM
[5] = target: T3, Adenosine receptor A1 (Homo sapiens, UniProt P30542); type: cell membranes, CHO, Membrane; settings: cho;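 note: radioligand binding assay at the adenosine A1 receptor, with DPCPX serving as the labelled ligand; in other assays of this panel Not Active means under 50% inhibition at 10 µM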
T3 sequence (P30542 whole entry): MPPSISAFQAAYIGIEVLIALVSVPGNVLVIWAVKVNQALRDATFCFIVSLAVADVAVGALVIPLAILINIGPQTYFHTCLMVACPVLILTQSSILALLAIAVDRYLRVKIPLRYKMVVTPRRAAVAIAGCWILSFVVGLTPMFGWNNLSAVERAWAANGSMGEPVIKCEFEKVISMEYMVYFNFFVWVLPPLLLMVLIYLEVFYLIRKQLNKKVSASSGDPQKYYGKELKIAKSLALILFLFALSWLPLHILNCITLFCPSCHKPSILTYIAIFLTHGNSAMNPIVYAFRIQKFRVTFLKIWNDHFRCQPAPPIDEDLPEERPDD

[6] = target: T4, Estrogen receptor (Homo sapiens, UniProt P03372); settings: sf9; note: in other assays of this panel Not Active means under 50% inhibition at 10 µM
T4 sequence (P03372 whole entry): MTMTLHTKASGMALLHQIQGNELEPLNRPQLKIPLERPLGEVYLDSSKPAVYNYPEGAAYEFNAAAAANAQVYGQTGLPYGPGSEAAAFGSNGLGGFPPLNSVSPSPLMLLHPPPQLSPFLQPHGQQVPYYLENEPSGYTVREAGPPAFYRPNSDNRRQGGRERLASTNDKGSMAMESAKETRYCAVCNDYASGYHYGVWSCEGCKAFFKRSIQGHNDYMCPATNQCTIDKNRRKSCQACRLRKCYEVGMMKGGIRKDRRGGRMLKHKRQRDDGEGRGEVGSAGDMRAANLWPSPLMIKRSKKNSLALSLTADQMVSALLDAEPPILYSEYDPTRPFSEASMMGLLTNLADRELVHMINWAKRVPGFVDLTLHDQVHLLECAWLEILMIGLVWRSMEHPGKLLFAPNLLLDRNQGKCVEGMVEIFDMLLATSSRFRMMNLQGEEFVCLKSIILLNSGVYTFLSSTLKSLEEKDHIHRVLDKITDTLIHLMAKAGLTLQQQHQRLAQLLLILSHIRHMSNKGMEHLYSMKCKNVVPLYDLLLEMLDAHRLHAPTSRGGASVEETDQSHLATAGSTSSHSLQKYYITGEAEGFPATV

Platelet-activating factor receptor, sequence (P25105 whole entry): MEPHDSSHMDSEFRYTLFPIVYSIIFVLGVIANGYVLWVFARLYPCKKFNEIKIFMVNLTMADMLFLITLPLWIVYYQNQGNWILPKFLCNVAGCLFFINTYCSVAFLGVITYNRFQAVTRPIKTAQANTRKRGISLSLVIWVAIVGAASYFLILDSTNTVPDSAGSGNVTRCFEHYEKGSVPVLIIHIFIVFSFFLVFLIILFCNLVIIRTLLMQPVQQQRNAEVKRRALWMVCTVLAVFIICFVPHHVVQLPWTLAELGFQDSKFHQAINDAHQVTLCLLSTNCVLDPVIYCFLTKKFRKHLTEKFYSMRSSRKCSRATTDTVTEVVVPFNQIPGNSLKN

SMILES	IC50 [1]	Ki [1]	IC50 [2]	IC50 [3]	IC50 ([4]; platelet)	IC50 [5]	IC50 [6]	IC50 ([4]; read-out: IC50)	Ki ([4]; read-out: Ki)
Nn1nnc2ccccc21	Not Active	Not Active	Not Active	Not Active	Not Active	Not Active	Not Active	–	–
CC[C@]1(O)CC[C@H]2[C@@H]3CCC4=CCCC[C@@H]4[C@H]3CC[C@@]21C	Not Active	Not Active	Not Active	Not Active	Not Active	Not Active	–	–	–
N[C@@H](Cc1ccc(F)cc1)C(=O)O	Not Active	Not Active	Not Active	Not Active	Not Active	Not Active	–	–	–
CCOC(=O)[C@H](CCc1ccccc1)N[C@@H](C)C(=O)N1Cc2ccccc2C[C@H]1C(=O)O	Not Active	Not Active	Not Active	Not Active	Not Active	Not Active	Not Active	–	–
O=C(c1ccccc1Cl)N1CCC(Cc2ccccc2)CC1	Not Active	Not Active	Not Active	Not Active	Not Active	Not Active	Not Active	–	–
CCOC(=O)[C@H](CCc1ccccc1)N[C@@H](C)C(=O)N1CCC[C@H]1C(=O)O	Not Active	Not Active	Not Active	Not Active	Not Active	Not Active	–	–	–
Clc1cc2c(cc1Cl)Oc1cc(Cl)c(Cl)cc1O2 [2,3,7,8-TETRACHLORODIBENZO-P-DIOXIN]	Not Active	Not Active	Not Active	Not Active	Not Active	Not Active	Not Active	–	–
C=C1/C(=C\C=C2/CCC[C@]3(C)[C@@H]([C@H](C)CCCC(C)C)CC[C@@H]23)C[C@@H](O)C[C@@H]1O [ALFACALCIDOL]	Not Active	Not Active	Not Active	Not Active	Not Active	Not Active	–	–	–
C[C@@H]1CC[C@H]2[C@@H](C)C(=O)O[C@@H]3O[C@@]4(C)CC[C@@H]1[C@]32OO4 [ARTEMISININ]	Not Active	Not Active	Not Active	Not Active	Not Active	Not Active	–	–	–
[N-]=[N+]=CC(=O)OC[C@H](N)C(=O)O [AZASERINE]	Not Active	Not Active	Not Active	Not Active	Not Active	Not Active	–	–	–
CC(C)C[C@H]1C(=O)N2CCC[C@H]2[C@]2(O)O[C@](NC(=O)[C@@H]3C=C4c5cccc6[nH]c(Br)c(c56)C[C@H]4N(C)C3)(C(C)C)C(=O)N12 [BROMOCRIPTINE]	Not Active	Not Active	Not Active	Not Active	Not Active	Not Active	–	–	–
O=C(/C=C/c1ccc(O)c(O)c1)OCCc1ccccc1 [CAFFEIC ACID PHENETHYL ESTER]	Not Active	Not Active	Not Active	Not Active	Not Active	Not Active	–	–	–
Oc1ccccc1O [CATECHOL]	Not Active	Not Active	Not Active	Not Active	Not Active	Not Active	–	–	–
CN(C(=O)CCCOc1ccc2[nH]c(=O)ccc2c1)C1CCCCC1 [CILOSTAMIDE]	Not Active	Not Active	Not Active	Not Active	–	Not Active	–	3690 nM	1920 nM
Nc1nc(Cl)nc2c1ncn2[C@H]1C[C@H](O)[C@@H](CO)O1 [CLADRIBINE]	Not Active	Not Active	Not Active	Not Active	Not Active	Not Active	–	–	–
CC(=O)O[C@]1(C(C)=O)CC[C@H]2[C@@H]3C=C(Cl)C4=CC(=O)[C@@H]5C[C@@H]5[C@]4(C)[C@H]3CC[C@@]21C [CYPROTERONE ACETATE]	Not Active	Not Active	Not Active	Not Active	Not Active	Not Active	–	–	–
Nc1nc(N)nc(NC2CC2)n1 [CYROMAZINE]	Not Active	Not Active	Not Active	Not Active	Not Active	Not Active	–	–	–
C#C[C@]1(O)CC[C@H]2[C@@H]3CCC4=Cc5oncc5C[C@]4(C)[C@H]3CC[C@@]21C [DANAZOL]	Not Active	Not Active	Not Active	Not Active	Not Active	Not Active	–	–	–
CN1C(=O)CN=C(c2ccccc2)c2cc(Cl)ccc21 [DIAZEPAM]	Not Active	Not Active	Not Active	Not Active	Not Active	Not Active	–	–	–
Cc1c(N(C)CS(=O)(=O)[O-])c(=O)n(-c2ccccc2)n1C.[Na+] [DIPYRONE SODIUM]	Not Active	Not Active	Not Active	Not Active	Not Active	Not Active	–	–	–
C#C[C@]1(O)CC[C@H]2[C@@H]3CCc4cc(O)ccc4[C@H]3CC[C@@]21C [ETHINYL ESTRADIOL]	Not Active	Not Active	Not Active	Not Active	Not Active	Not Active	–	–	–
COc1ccccc1OCC(O)CO (centres undefined) [GUAIFENESIN]	Not Active	Not Active	Not Active	Not Active	Not Active	Not Active	–	–	–
C[C@]12CCC(=O)C=C1CC[C@@H]1[C@@H]2[C@@H](O)C[C@@]2(C)[C@H]1CC[C@]2(O)C(=O)CO [HYDROCORTISONE]	Not Active	Not Active	Not Active	Not Active	Not Active	Not Active	–	–	–
Cc1cccc(Nc2ccccc2C(=O)O)c1C [MEFENAMIC ACID]	Not Active	Not Active	Not Active	Not Active	Not Active	Not Active	–	–	–
COc1ccc2cc(CCC(C)=O)ccc2c1 [NABUMETONE]	Not Active	Not Active	Not Active	Not Active	Not Active	Not Active	–	–	–
O=C(O)c1cccnc1 [NIACIN]	Not Active	Not Active	Not Active	Not Active	Not Active	Not Active	–	–	–
CNC(=C[N+](=O)[O-])NCCSCc1csc(CN(C)C)n1 [NIZATIDINE]	Not Active	Not Active	Not Active	Not Active	Not Active	Not Active	–	–	–
COc1ccc(Cc2nccc3cc(OC)c(OC)cc23)cc1OC [PAPAVERINE]	Not Active	Not Active	Not Active	Not Active	Not Active	Not Active	–	–	–
CC(C)(Sc1cc(C(C)(C)C)c(O)c(C(C)(C)C)c1)Sc1cc(C(C)(C)C)c(O)c(C(C)(C)C)c1 [PROBUCOL]	Not Active	Not Active	Not Active	Not Active	Not Active	Not Active	–	–	–
